Patent US8019412B2, “Apparatus for facilitating transdermal delivery of therapeutic substances and method of transdermally delivering therapeutic substances” (International Scientific Pty Ltd., priority 2003, dated 2011)

Tested on: excised human epidermal membranes
Assay type: in vitro ADME
Source text: In an experimental example, penetration of caffeine through excised human epidermal membranes was investigated using Franz-type diffusion cells and standard procedures. An electromagnetic field pattern was created and the penetration results compared with passive diffusion. The electromagnetic field pattern used was generated by applying an energisation signal having 12 pulses at a repeating frequency of 10 Hz to a coil Each of the pulses has a duration of approximately 360 μs. A phosphate buffered saline receptor solution was used and the amount of caffeine in the receptor solution determined by HPLC with UV detection at regular time intervals up to 6 hours post application of the electromagnetic field. In this example, the electromagnetic field pattern was applied for approximately 30 minutes.
Similar experiments were carried out with electromagnetic fields generated by applying an energisation signal having 15 pulses of 360 μs duration at a repeating frequency of 20 Hz to a coil, and by applying an energisation signal having 255 pulses at a repeating frequency of 2 Hz to a coil. These experiments yielded caffeine flux values of 7.20 μgcm^−2h^−1 and 8.51 μgcm^−2h^−1, although the latter of these experiments produced an effect only after 60 minutes.
A further experiment was carried out by applying an energisation signal having a single quasi-rectangular pulse repeated at 72 Hz to a coil.

In the case of Cn1c(=O)c2c(ncn2C)n(C)c1=O [caffeine], the “caffeine flux associated with passive diffusion” value is reported as ~4.1 μgcm^−2h^−1, the “highest caffeine flux achieved with electromagnetic field pattern” value is reported as 19.24 μgcm^−2h^−1 and the “time after which an effect was produced” value is reported as ≥ 60 min.
